Data: patent US20150051203A1, “TRIAZOLE DERIVATIVES AS HSP90 INHIBITORS” (Synta Pharmaceuticals Corp., priority 2012, published 2015)
Where two headings read alike, the source gives them in different places.

Key:
c-Kit = c-Kit degradation in HEL92.1.7 cells (FACS-based degradation assay); assay type: cell-based; conditions: treated about 18 h
Description: Two leukemia cell lines, HEL92.1.7 and Kasumi-1, were used for testing c-Kit degradation induced by Hsp90 inhibitors of the invention. The cells (3×10^5 per well) were treated with 17AAG (0.5 μM), or a compound of the invention for about 18 h. The cells were collected and centrifuged (SORVALL RT 6000D) at 1200 rpm for 5 min. The supernatants were discarded, and the cells were washed one time with 1×PBS. After centrifugation the cells were stained with FITC conjugated c-Kit antibody (MBL International, Cat# K0105-4) in […] 1×PBS at 4° C. for 1 h. The samples were read and analyzed with FACSCalibur flow cytometer (Becton Dicknson).
c-Kit, a tyrosine kinase receptor and one of the Hsp90 client proteins, was selected and used in a FACS-based degradation assay.

[1] = Exploratory small molecule PK study in rats; assay type: in vivo, male Sprague-Dawley rats; design: AUClast: unit not given here; conditions: rat; for half-life: male, Sprague-Dawley, plasma, read-out: T½ (converted); for F: PO 25 mg/Kg D5W vs IV 5 mg/Kg DPD
Description: PK studies were conducted in male Sprague-Dawley rats. One group was dosed by IV (n=2) and another group was dosed orally (n=3). Blood samples were collected in lithium heparin coated microfuge tubes at 5 (IV only), 15, 30 min, 1, 3, 4, 6, 8, 24 h post dose. Samples were then centrifuged under refrigerated conditions and plasma was collected for analysis.
A solvent-based protein precipitation procedure was used to measure the concentration of each compound in plasma and/or whole blood. Samples were analyzed with an Agilent 1100 HPLC (Santa Clara, Calif.) interfaced to an API 4000 tandem mass spectrometer (Applied Biosystems, Foster City, Calif.) using a Synergy, Hydro-RP column (4 μm, 2×50 mm; Phenomenex, Torrance, Calif.) at a flow rate of 0.5 ml/min. Mobile phase consisted of 10 mM ammonium acetate in water (A) and 10 mM ammonium acetate in 95/5 (v/v) methanol/water (B). Total run time was 5 min with the gradient elution. […] All standard curves were fit to a quadratic equation with a weighing factor of 1/(concentration)^2 to calculate compound concentrations.

Her2 [2] = assay: Fluorescent staining of Her2 on the surface of cells, FACS (BT474); assay type: cell-based, Human
Description: (§1) After treatment with a compound of the invention, cells are washed twice with 1×PBS/1% FBS, and then stained with anti-Her2-FITC (#340553, BD) for 30 min at 4° C. Cells are then washed three times in FACS buffer before the fixation in 0.5 ml 1% paraformadehyde. Data is acquired on a FACSCalibur system. Isotype-matched controls are used to establish the non-specific staining of samples and to set the fluorescent markers. A total 10,000 events are recorded from each sample. Data are analyzed by using CellQuest software (BD Biosciences).
as §1, with “paraformadehydrede.” for “paraformadehyde.”

Her2 [3] = assay: Her2 degradation in BT-474 cells, ICW (LI-COR Odyssey imaging); assay type: cell-based, Human; conditions: BT474 cells, 24 hours
Description: All experiments were performed on day 1 after cell passage.
BT-474 cells were plated in the interior 60 wells of a 96 well black clear bottom plate (20,000 cells/well) in DMEM medium, with DMEM media in the surrounding 36 wells, and incubated at 37° C. with 5% CO2 overnight. On the second day, concentration response curve source plates were produced (10 point, 3-fold dilution of compounds in DMSO) followed by a 1:30 dilution in an intermediate dilution plate containing DMEM. Compound was transferred from the intermediate plate to the cell plate at a dilution of 1:10. The cells were incubated at 37° C. with 5% CO2 for 24 hours.
Cells were fixed in 4% phosphate buffered paraformaldehyde for 30 minutes at room temperature and then permeabilized by washing five times with 0.1% Triton X-100 in PBS for 5 minutes at room temperature on a shaker. Cells were blocked with Odyssey Blocking Buffer (LI-COR, #927-40000) on a shaker at room temperature for 1.5 hours followed by incubation with Her2 antibody (CST, #2165) diluted 1:400 in blocking buffer overnight on a shaker at 4° C. Cells were washed five times with 0.1% Tween-20 in PBS for 5 minutes at room temperature on a shaker and incubated with fluorescently labeled secondary antibody (LI-COR, #926-32211) diluted 1:1000 in blocking buffer, and DRAQ5 nuclear stain (Biostatus Limited, #DRAQ5) diluted 1:10,000, at room temperature on a shaker for 1 hour. Cells were washed 5 times with 0.1% Tween-20 in PBS for 5 minutes at room temperature on a shaker and imaged on a LI-COR Odyssey imaging station. The raw data was normalized to DRAQ5 and the Her2 EC50 were calculated using XLfit.

## CCc1n[nH]c2cc(O)c(-c3nnc(O)n3-c3ccc4c(c3)CC(N3CCOCC3)C4)cc12 (stereo not shown) [Compound 35, 3-ethyl-5-(5-hydroxy-4-(2-morpholino-2,3-dihydro-1H-inden-5-yl)-4H-1,2,4-triazol-3-yl)-1H-indazol-6-ol]
c-Kit
  IC50: > 20000 nM

## CCc1n[nH]c2cc(O)c(-c3nnc(SCc4cccnc4)n3-c3ccc(N4CCOCC4)cc3)cc12 [Compound 30, 3-ethyl-5-(4-(4-morpholinophenyl)-5-(pyridin-3-ylmethylthio)-4H-1,2,4-triazol-3-yl)-1H-indazol-6-ol]
c-Kit
  IC50: 300 nM

## CCNC(=O)c1nnc(-c2cc3c(C(C)C)n[nH]c3cc2O)n1-c1ccc(CN2CCOCC2)cc1 [Compound 55, N-ethyl-5-(6-hydroxy-3-isopropyl-1H-indazol-5-yl)-4-(4-(morpholinomethyl)phenyl)-4H-1,2,4-triazole-3-carboxamide]
[1]; IV 5 mg/Kg, DPD
  half-life: 1.7 h
  AUClast: 2.52
[1]; PO 25 mg/Kg, D5W
  half-life: 4.3 h
  AUClast: 24.4
[1]
  F: 197%

## Cc1n[nH]c2cc(O)c(-c3nnc(C(=O)NC4CC4)n3-c3ccc(N4CCOCC4)cc3)cc12 [Compound 5, N-cyclopropyl-5-(6-hydroxy-3-methyl-1H-indazol-5-yl)-4-(4-morpholinophenyl)-4H-1,2,4-triazole-3-carboxamide]
c-Kit
  IC50: 100 nM

## Cc1n[nH]c2cc(O)c(-c3nnc(C(N)=O)n3-c3ccc4c(c3)OCO4)cc12 [Compound 4, 4-(benzo[d][1,3]dioxol-5-yl)-5-(6-hydroxy-3-methyl-1H-indazol-5-yl)-4H-1,2,4-triazole-3-carboxamide]
c-Kit
  IC50: 5000 nM

## CCc1n[nH]c2cc(O)c(-c3nnc(O)n3-c3ccc(N4CCOCC4)nc3)cc12 [Compound 33, 3-ethyl-5-(5-hydroxy-4-(6-morpholinopyridin-3-yl)-4H-1,2,4-triazol-3-yl)-1H-indazol-6-ol]
c-Kit
  IC50: 4000 nM

## Oc1cc2[nH]nc(C3CCCC3)c2cc1-c1nnc(O)n1-c1ccc(CN2CCOCC2)cc1 [Compound 78, 3-cyclopentyl-5-(5-hydroxy-4-(4-(morpholinomethyl)phenyl)-4H-1,2,4-triazol-3-yl)-1H-indazol-6-ol]
[1]; IV 5 mg/Kg, DPD
  half-life: 1.5 h
  AUClast: 3.96
[1]; PO 25 mg/Kg, D5W
  half-life: 4.2 h
  AUClast: 2.55
[1]
  F: 13%

## CC(C)c1n[nH]c2cc(O)c(-c3nnc(O)n3-c3ccc(N4CCN(C)CC4)cc3)cc12 [Compound 72, 5-(5-hydroxy-4-(4-(4-methylpiperazin-1-yl)phenyl)-4H-1,2,4-triazol-3-yl)-3-isopropyl-1H-indazol-6-ol]
[1]; IV 5 mg/Kg, DPD
  half-life: 1.1 h
  AUClast: 1.69
[1]; PO 25 mg/Kg, D5W
  half-life: 2.1 h
  AUClast: 0.61
[1]
  F: 7.57%

## CC(C)c1cc(-c2n[nH]c(=O)n2-c2ccc3c(ccn3C)c2)c(O)cc1O [ganetespib, reference compound]
c-Kit
  IC50: 4 nM
Her2 [2]
  EC50: 18 nM
Her2 [3]
  EC50: 20 nM

## Cc1n[nH]c2cc(O)c(-c3nnc(C(N)=O)n3-c3ccc(N4CCOCC4)cc3)cc12 [Compound 2, 5-(6-hydroxy-3-methyl-1H-indazol-5-yl)-4-(4-morpholinophenyl)-4H-1,2,4-triazole-3-carboxamide]
c-Kit
  IC50: 500 nM

## CN1CCN(c2ccc(-n3c(O)nnc3-c3cc4c(C5CCC5)n[nH]c4cc3O)cc2)CC1 [Compound 70, 3-cyclobutyl-5-(5-hydroxy-4-(4-(4-methylpiperazin-1-yl)phenyl)-4H-1,2,4-triazol-3-yl)-1H-indazol-6-ol]
c-Kit
  IC50: > 1000 nM
Her2 [2]
  EC50: > 1000 nM
Her2 [3]
  EC50: 300 nM

## CC(C)c1n[nH]c2cc(O)c(-c3nnc(C(=O)NC4CC4)n3-c3ccc(N4CCOCC4)cc3)cc12 [Compound 10, N-cyclopropyl-5-(6-hydroxy-3-isopropyl-1H-indazol-5-yl)-4-(4-morpholinophenyl)-4H-1,2,4-triazole-3-carboxamide]
c-Kit
  IC50: 7 nM

## CCc1n[nH]c2cc(O)c(-c3nnc(C(N)=O)n3-c3ccc(N4CCOCC4)cc3)cc12 [Compound 6, 5-(3-ethyl-6-hydroxy-1H-indazol-5-yl)-4-(4-morpholinophenyl)-4H-1,2,4-triazole-3-carboxamide]
c-Kit
  IC50: 20 nM

## CC(C)c1n[nH]c2cc(O)c(-c3nnc(C(N)=O)n3-c3ccc(N4CCOCC4)cc3)cc12 [Compound 9, 5-(6-hydroxy-3-isopropyl-1H-indazol-5-yl)-4-(4-morpholinophenyl)-4H-1,2,4-triazole-3-carboxamide]
c-Kit
  IC50: 40 nM

## CCc1n[nH]c2cc(O)c(-c3nnc(O)n3-c3ccc4c(ccn4C)c3)cc12 [Compound 29, 3-ethyl-5-(5-hydroxy-4-(1-methyl-1H-indol-5-yl)-4H-1,2,4-triazol-3-yl)-1H-indazol-6-ol]
c-Kit
  IC50: 200 nM

## Oc1cc2[nH]nc(C3CCCC3)c2cc1-c1nnc(O)n1-c1ccc(N2CCOCC2)cc1 [Compound 71, 3-cyclopentyl-5-(5-hydroxy-4-(4-morpholinophenyl)-4H-1,2,4-triazol-3-yl)-1H-indazol-6-ol]
c-Kit
  IC50: 106 nM
Her2 [2]
  EC50: 119 nM
Her2 [3]
  EC50: 30 nM

## CCc1n[nH]c2cc(O)c(-c3nnc(O)n3-c3cccc(N(C)C)c3)cc12 [Compound 31, 5-(4-(3-(dimethylamino)phenyl)-5-hydroxy-4H-1,2,4-triazol-3-yl)-3-ethyl-1H-indazol-6-ol]
c-Kit
  IC50: > 20000 nM

## CCc1n[nH]c2cc(O)c(-c3nnc(O)n3-c3ccc(N4CCOCC4)cc3)cc12 [Compound 32, 3-ethyl-5-(5-hydroxy-4-(4-morpholinophenyl)-4H-1,2,4-triazol-3-yl)-1H-indazol-6-ol]
c-Kit
  IC50: 400 nM

## CCCc1n[nH]c2cc(O)c(-c3nnc(C(=O)NC4CC4)n3-c3ccc(N4CCOCC4)cc3)cc12 [Compound 8, N-cyclopropyl-5-(6-hydroxy-3-propyl-1H-indazol-5-yl)-4-(4-morpholinophenyl)-4H-1,2,4-triazole-3-carboxamide]
c-Kit
  IC50: 36 nM
